How the values were obtained:
[1] = target: T1, ST3Gal4 (human α2-3ST) (Homo sapiens, UniProt Q11206); experiment: transfer to Lec2 cell surface, ECL lectin flow cytometry; biotin-azide / streptavidin detection; type: cell-based; conditions: added recombinant enzyme; acceptor N-glycan LacNAc on Lec2 CHO cells; 37 °C, 1 h
T1 construct: recombinant glycosyltransferase
T1 sequence (Q11206 27-333 limits assumed): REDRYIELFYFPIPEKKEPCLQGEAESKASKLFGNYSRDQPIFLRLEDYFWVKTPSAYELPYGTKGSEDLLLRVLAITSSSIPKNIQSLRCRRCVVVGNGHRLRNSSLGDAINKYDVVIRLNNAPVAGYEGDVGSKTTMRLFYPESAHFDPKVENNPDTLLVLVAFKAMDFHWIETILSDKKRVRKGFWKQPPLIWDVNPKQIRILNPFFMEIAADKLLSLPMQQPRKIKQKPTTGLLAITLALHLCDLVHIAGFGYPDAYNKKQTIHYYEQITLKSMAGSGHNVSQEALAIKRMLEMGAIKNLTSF

[2] = target: T2, ST6Gal1 (rat α2-6ST) (Rattus norvegicus, UniProt P13721); experiment: as above; type: cell-based; conditions: added recombinant enzyme; acceptor N-glycan LacNAc on Lec2 CHO cells; 37 °C, 1 h
T2 construct: recombinant glycosyltransferase
T2 sequence (P13721 27-403 limits assumed): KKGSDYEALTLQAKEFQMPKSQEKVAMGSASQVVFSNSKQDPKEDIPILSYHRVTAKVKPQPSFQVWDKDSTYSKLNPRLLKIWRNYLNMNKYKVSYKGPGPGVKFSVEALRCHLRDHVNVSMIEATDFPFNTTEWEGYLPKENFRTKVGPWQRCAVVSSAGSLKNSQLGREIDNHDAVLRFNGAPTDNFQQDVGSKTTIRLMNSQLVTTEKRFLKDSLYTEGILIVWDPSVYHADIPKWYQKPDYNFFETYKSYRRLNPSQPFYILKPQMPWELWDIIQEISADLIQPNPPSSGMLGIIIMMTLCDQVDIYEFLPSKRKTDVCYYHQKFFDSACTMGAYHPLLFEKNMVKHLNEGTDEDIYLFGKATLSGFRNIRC

SMILES: C#CCOC(=O)N[C@H]1[C@H]([C@H](O)[C@H](O)CO)O[C@](OP(=O)(O)OC[C@H]2O[C@@H](n3ccc(N)nc3=O)[C@H](O)[C@@H]2O)(C(=O)O)C[C@@H]1O [compound 7, CMP-SiaPoc]
- transfer to Lec2 cell surface, ECL lectin flow cytometry; biotin-azide / strepta [1]: Upon sialylation by ST3Gal4 and ST6Gal1, Lec2 CHO cells showed a reduction in ECL binding
- transfer to Lec2 cell surface, ECL lectin flow cytometry; biotin-azide / strepta [2]: Upon sialylation by ST3Gal4 and ST6Gal1, Lec2 CHO cells showed a reduction in ECL binding

— PMC5830402, “Cell-based glycan arrays for probing glycan–glycan binding protein interactions” (Nature Communications, 2018)
